Reference: patent US10245261B2, “Substituted indol-5-ol derivatives and their therapeutic applications” (NantBioScience, Inc., priority 2013, dated 2019)

Tests used:
Experiment in all cases: KinaseProfiler kinase assay
Assay type in all cases: biochemical
[1] = target: Met(Y1248C)(h) (Homo sapiens, UniProt P08581, Y1230C)
Procedure, shortened: (§1)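 Steps: compound diluted from DMSO into MOPS/BSA assay buffer; MgATP mix with [γ-33P]ATP added to start; 40 min incubation at room temperature; phosphoric acid stop; filtermat spotting, washing in 50 mM phosphoric acid and methanol; scintillation counting.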

[2] = target: EphB4(h) (Homo sapiens, UniProt P54760)
Procedure, shortened: as §1

[3] = target: MLK1(h) (Homo sapiens, UniProt P80192)
Procedure, shortened: as §1

[4] = target: CaMKIV(h) (Homo sapiens, UniProt Q16566)
Procedure, shortened: as §1

[5] = target: VRK2(h) (Homo sapiens, UniProt Q86Y07)
Procedure, shortened: as §1

[6] = target: mTOR/FKBP12(h) (Homo sapiens, UniProt P42345)
Procedure, shortened: as §1

[7] = target: Axl(h) (Homo sapiens, UniProt P30530)
Procedure, shortened: as §1

[8] = target: JNK1α1(h) (Homo sapiens, UniProt P45983)
Procedure, shortened: as §1

[9] = target: CaMKIδ(h) (Homo sapiens, UniProt Q8IU85)
Procedure, shortened: as §1

[10] = target: HIPK2(h) (Homo sapiens, UniProt Q9H2X6)
Procedure, shortened: as §1

[11] = target: MELK(h) (Homo sapiens, UniProt Q14680)
Procedure, shortened: as §1

[12] = target: CDK7/cyclinH/MAT1(h) (Homo sapiens, UniProt P50613)
Procedure, shortened: as §1

[13] = target: EGFR(L861Q)(h) (Homo sapiens, UniProt P00533, L861Q)
Procedure, shortened: as §1

[14] = target: ZAP-70(h) (Homo sapiens, UniProt P43403)
Procedure, shortened: as §1

[15] = target: Haspin(h) (Homo sapiens, UniProt Q8TF76)
Procedure, shortened: as §1

[16] = target: Rsk1(r) (Rattus norvegicus, UniProt Q63531)
Procedure, shortened: as §1

[17] = target: SGK(h) (Homo sapiens, UniProt O00141)
Procedure, shortened: as §1

[18] = target: FAK(h) (Homo sapiens, UniProt Q05397)
Procedure, shortened: as §1

[19] = target: RIPK2(h) (Homo sapiens, UniProt O43353)
Procedure, shortened: as §1

[20] = target: PDGFRβ(h) (Homo sapiens, UniProt P09619)
Procedure, shortened: as §1

[21] = target: PDGFRα(V561D)(h) (Homo sapiens, UniProt P16234, V561D)
Procedure, shortened: as §1

[22] = target: PKCε(h) (Homo sapiens, UniProt Q02156)
Procedure, shortened: as §1

[23] = target: Bmx(h) (Homo sapiens, UniProt P51813)
Procedure, shortened: as §1

[24] = target: CHK2(I157T)(h) (Homo sapiens, UniProt O96017, I157T)
Procedure, shortened: as §1

[25] = target: EGFR(h) (Homo sapiens, UniProt P00533)
Procedure, shortened: as §1

[26] = target: CK1γ2(h) (Homo sapiens, UniProt P78368)
Procedure, shortened: as §1

[27] = target: MINK(h) (Homo sapiens, UniProt Q8N4C8)
Procedure, shortened: as §1

[28] = target: Arg(m) (Mus musculus, UniProt Q4JIM5)
Procedure, shortened: as §1

[29] = target: EphB1(h) (Homo sapiens, UniProt P54762)
Procedure, shortened: as §1

[30] = target: Rsk2(h) (Homo sapiens, UniProt P51812)
Procedure, shortened: as §1

[31] = target: Hck(h) activated (Homo sapiens, UniProt P08631)
Procedure, shortened: as §1

[32] = target: SAPK3(h) (Homo sapiens, UniProt P53778)
Procedure, shortened: as §1

Sequence of Met(Y1248C)(h) (P08581 25-1408 isoform P08581-2 Y1248C): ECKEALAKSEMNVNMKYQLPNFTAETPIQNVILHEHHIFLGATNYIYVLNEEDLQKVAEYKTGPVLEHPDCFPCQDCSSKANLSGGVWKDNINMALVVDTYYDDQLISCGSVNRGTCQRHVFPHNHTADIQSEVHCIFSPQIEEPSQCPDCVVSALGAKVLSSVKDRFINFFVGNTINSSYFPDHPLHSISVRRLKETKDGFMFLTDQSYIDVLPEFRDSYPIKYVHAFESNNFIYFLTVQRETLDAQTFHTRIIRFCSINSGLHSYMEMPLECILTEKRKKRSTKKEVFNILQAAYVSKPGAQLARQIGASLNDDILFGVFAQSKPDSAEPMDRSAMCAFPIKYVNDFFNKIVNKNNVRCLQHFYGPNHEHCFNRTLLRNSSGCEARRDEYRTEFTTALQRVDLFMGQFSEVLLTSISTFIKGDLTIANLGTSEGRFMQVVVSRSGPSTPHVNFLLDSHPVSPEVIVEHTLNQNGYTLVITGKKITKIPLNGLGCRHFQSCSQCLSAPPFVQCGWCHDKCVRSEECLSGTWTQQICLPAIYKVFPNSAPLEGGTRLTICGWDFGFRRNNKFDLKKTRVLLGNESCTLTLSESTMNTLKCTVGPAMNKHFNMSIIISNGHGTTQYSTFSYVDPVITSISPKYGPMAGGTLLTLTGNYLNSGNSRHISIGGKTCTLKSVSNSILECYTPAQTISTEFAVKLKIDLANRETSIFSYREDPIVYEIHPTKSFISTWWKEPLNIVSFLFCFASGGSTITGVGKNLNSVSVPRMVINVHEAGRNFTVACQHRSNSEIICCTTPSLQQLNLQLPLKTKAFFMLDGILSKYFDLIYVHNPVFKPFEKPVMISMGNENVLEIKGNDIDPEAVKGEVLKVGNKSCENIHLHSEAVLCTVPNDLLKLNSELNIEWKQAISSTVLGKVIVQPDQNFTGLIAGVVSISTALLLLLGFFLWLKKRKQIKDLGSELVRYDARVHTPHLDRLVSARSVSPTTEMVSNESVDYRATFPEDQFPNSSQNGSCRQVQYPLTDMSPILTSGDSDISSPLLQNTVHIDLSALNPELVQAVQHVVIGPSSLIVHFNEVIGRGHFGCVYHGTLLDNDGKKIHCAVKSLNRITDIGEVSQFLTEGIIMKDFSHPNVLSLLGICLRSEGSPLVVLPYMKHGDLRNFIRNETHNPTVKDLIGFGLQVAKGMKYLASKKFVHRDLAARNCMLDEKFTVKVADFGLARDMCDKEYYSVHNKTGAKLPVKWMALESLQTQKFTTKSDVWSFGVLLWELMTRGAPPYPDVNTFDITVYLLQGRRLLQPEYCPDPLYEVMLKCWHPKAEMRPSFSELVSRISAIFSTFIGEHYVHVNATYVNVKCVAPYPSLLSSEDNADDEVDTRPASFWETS
Sequence of Bmx(h) (P51813 whole entry): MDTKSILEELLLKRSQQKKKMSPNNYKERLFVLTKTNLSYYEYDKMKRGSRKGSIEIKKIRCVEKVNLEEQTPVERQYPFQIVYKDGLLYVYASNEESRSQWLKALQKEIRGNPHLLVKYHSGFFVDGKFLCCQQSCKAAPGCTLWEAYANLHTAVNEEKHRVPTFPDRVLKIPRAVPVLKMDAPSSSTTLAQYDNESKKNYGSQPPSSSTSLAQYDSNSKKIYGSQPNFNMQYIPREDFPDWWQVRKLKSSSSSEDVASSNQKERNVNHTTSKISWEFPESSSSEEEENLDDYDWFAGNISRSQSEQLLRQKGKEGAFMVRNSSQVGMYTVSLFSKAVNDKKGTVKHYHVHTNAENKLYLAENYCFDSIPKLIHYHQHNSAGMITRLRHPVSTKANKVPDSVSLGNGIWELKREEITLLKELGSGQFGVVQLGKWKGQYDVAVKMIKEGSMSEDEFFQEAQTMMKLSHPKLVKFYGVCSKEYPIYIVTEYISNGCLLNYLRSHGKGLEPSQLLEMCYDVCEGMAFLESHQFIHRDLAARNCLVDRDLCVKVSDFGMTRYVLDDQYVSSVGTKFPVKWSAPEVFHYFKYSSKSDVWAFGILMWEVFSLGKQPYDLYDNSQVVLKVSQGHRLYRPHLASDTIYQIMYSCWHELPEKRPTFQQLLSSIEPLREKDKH
Sequence of EGFR(h) (P00533 25-1210): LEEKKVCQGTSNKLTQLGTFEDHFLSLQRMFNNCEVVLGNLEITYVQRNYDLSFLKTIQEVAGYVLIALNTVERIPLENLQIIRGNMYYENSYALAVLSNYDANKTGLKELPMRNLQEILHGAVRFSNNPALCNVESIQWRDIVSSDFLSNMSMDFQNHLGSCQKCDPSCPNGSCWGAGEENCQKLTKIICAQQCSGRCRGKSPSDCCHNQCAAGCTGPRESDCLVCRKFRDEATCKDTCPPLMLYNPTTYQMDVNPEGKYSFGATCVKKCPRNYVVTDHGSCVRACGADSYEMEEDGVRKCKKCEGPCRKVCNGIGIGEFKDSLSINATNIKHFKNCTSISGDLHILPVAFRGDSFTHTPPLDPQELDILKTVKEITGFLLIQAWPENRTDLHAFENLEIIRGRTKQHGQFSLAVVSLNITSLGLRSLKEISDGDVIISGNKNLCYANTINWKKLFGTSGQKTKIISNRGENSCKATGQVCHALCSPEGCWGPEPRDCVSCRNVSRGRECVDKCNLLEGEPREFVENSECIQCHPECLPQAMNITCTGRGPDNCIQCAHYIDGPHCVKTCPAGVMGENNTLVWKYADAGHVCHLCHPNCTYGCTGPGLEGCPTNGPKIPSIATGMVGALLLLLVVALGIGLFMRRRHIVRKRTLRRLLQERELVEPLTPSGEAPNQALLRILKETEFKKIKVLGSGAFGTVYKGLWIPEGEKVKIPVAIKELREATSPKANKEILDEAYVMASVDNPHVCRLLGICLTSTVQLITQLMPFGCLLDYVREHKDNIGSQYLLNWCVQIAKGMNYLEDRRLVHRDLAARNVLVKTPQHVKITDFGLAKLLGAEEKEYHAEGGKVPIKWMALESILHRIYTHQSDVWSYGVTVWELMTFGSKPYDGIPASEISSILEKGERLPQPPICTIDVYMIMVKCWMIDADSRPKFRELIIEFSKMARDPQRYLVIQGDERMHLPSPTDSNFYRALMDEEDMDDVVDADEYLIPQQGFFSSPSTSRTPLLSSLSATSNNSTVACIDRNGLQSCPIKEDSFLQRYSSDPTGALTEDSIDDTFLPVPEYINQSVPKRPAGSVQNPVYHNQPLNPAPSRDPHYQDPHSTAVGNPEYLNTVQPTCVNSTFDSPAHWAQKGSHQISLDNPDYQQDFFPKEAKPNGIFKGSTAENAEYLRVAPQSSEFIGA
Sequence of MLK1(h) (P80192 whole entry): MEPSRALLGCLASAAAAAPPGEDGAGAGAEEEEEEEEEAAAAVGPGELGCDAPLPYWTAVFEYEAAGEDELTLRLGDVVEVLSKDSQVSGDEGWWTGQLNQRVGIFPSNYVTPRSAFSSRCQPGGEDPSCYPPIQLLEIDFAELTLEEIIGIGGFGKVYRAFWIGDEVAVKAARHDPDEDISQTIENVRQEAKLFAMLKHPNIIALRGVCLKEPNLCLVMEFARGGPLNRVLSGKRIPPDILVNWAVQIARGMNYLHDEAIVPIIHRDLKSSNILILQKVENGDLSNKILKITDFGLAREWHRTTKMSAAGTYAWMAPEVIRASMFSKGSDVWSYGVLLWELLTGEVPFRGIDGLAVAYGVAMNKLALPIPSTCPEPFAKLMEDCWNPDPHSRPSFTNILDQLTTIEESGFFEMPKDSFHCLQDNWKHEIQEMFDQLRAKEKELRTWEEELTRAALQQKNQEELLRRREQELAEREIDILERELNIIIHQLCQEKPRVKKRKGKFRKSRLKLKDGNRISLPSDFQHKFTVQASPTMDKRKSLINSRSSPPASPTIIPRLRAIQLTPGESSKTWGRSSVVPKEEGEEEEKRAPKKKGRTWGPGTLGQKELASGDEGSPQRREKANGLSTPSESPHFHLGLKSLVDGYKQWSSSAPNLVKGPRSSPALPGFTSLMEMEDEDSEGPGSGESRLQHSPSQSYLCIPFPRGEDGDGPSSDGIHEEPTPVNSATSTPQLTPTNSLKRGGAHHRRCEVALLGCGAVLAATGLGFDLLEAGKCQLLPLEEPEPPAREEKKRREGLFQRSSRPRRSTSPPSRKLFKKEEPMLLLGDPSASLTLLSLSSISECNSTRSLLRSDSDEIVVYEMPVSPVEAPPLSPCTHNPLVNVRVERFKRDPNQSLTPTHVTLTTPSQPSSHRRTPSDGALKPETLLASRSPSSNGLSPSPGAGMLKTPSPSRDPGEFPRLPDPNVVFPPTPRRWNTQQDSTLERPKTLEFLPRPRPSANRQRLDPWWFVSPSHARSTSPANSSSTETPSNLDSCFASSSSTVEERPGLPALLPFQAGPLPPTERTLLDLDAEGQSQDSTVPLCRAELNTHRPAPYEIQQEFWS
Sequence of Rsk2(h) (P51812 whole entry): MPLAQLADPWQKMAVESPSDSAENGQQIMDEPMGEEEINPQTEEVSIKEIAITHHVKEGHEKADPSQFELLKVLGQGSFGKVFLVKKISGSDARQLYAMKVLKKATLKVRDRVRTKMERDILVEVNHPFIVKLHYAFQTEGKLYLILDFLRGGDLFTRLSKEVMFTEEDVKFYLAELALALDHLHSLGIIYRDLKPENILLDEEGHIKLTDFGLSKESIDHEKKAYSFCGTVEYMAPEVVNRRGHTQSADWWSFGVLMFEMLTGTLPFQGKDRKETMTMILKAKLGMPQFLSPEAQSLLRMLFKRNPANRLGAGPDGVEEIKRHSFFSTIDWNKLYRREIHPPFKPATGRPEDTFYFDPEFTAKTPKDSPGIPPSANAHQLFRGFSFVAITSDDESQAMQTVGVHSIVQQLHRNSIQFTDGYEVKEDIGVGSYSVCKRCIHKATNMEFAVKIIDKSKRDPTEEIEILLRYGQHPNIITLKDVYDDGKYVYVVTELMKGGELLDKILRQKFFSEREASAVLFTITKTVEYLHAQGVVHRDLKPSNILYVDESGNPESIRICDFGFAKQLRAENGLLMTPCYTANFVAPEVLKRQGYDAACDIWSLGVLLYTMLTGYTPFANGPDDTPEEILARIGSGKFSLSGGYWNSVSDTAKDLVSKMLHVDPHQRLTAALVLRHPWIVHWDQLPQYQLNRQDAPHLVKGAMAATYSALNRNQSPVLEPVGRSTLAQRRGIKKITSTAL

Row | Structure (SMILES) | inhibition at 0.1 µM [1] | inhibition at 0.1 µM [2] | inhibition at 0.1 µM [3] | inhibition at 0.1 µM [4] | inhibition at 0.1 µM [5] | inhibition at 0.1 µM [6] | inhibition at 0.1 µM [7] | inhibition at 0.1 µM [8] | inhibition at 0.1 µM [9] | inhibition at 0.1 µM [10] | inhibition at 0.1 µM [11] | inhibition at 0.1 µM [12] | inhibition at 0.1 µM [13] | inhibition at 0.1 µM [14] | inhibition at 0.1 µM [15] | inhibition at 0.1 µM [16] | inhibition at 0.1 µM [17] | inhibition at 0.1 µM [18] | inhibition at 0.1 µM [19] | inhibition at 0.1 µM [20] | also measured
1 | Cc1cc2c(F)c(Oc3nc(Nc4cc(C5CC5)[nH]n4)cc(N4CCN(C)CC4)n3)ccc2[nH]1 [Compound 10] | 57% | 85% | 84% | -25% | 34% | -14% | 70% | -7% | 6% | -2% | 69% | 44% | 2% | 3% | 0% | 16% | -38% | 22% | 1% | 28% | inhibition at 0.1 µM [21]: 86%; inhibition at 0.1 µM [22]: -10%; inhibition at 0.1 µM [23]: 98%; inhibition at 0.1 µM [24]: 30%; inhibition at 0.1 µM [25]: -8%; inhibition at 0.1 µM [26]: -20%; inhibition at 0.1 µM [27]: 7%; inhibition at 0.1 µM [28]: 99%; inhibition at 0.1 µM [29]: 101%; inhibition at 0.1 µM [30]: 37%; inhibition at 0.1 µM [31]: 90%; inhibition at 0.1 µM [32]: -4%
2 | Cc1cc2c(F)c(Oc3nc(Nc4cc(C5CC5)[nH]n4)cc(N4CCNCC4)n3)ccc2[nH]1 [Compound 11, N-(5-cyclopropyl-1H-pyrazol-3-yl)-2-((4-fluoro-2-methyl-1H-indol-5-yl)oxy)-6-(piperazin-1-yl)pyrimidin-4-amine] | 95% | 85% | 86% | -1% | 4% | -9% | 62% | 11% | 5% | 0% | 87% | 26% | 34% | -13% | -11% | 14% | -19% | 22% | 13% | 24% | inhibition at 0.1 µM [21]: 72%; inhibition at 0.1 µM [22]: 17%; inhibition at 0.1 µM [23]: 99%; inhibition at 0.1 µM [24]: -1%; inhibition at 0.1 µM [25]: -6%; inhibition at 0.1 µM [26]: -16%; inhibition at 0.1 µM [27]: 31%; inhibition at 0.1 µM [28]: 102%; inhibition at 0.1 µM [29]: 100%; inhibition at 0.1 µM [30]: 7%; inhibition at 0.1 µM [31]: 84%; inhibition at 0.1 µM [32]: -24%
